“Also recorded” adds a separate entry of the source.
Columns and labels:
[1] = system: CUTLL1 cells; experiment: Cell size (flow cytometry) and cell growth (MTT) assays in CUTLL1 cells; type: cell-based, human; conditions: CompE 100 nM for 4 days
Protocol: (§1) FIG. 2. PTEN loss and AKT activation induce GSI resistance in T-ALL. […] No protective effect was observed by expression of a control shRNA targeting the luciferase gene (shRNA LUC). Mean FSC-H values for GSI and vehicle only treatment controls are indicated. Bar graphs represent means +/− standard deviation of triplicate samples. P values were derived from Student's t-test.
(§2) Changes in cell size were monitored by flow cytometry after NOTCH1 inactivation by GSI treatment (CompE 100 nM) and upon lentiviral shRNA knock-down of NOTCH1. Cell growth ratios were determined by a colorimetric assay using the Cell Proliferation Kit I (MTT) (Roche) in cells treated with inhibitors or vehicle treated controls.

[2] = system: p-AKT (Ser473); experiment: Western blot analysis of PTEN and p-AKT (Ser473) in GSI sensitive T-ALL cell lines; type: cell-based, human; conditions: GSI-sensitive/PTEN-positive T-ALL cell lines
Text: (§3) FIG. 3. NOTCH1 regulates PTEN expression, AKT signaling and glucose metabolism. (a) Real-time PCR analysis of PTEN transcript levels upon NOTCH1 inhibition by GSI in CUTLL1 and HPB-ALL relative to (DMSO) controls. GAPDH levels were used as reference control. (b) Western blot analysis of PTEN and p-AKT (Ser473) in GSI sensitive T-ALL cell lines treated with CompE. AKT and α-Tubulin are shown as loading controls. (c) Real-time PCR analysis of Hes1 and PTEN expression in mouse DN3 thymocytes cocultured with stromal cells (OP9) or stromal cells expressing the NOTCH1 ligand Delta-like-1 (OP9-DL1). Data are means +/− standard deviation of duplicate (day 1) and triplicate (day 2) experiments. (d) Glucose uptake analysis in HPB-ALL and P12ICHIKAWA T-ALL cell lines in basal conditions (vehicle treatment only). (e) Glucose oxidation analysis in HPB-ALL and P12-ICHIKAWA T-ALL cell lines in basal conditions (vehicle treatment only). (f) Effects of GSI treatment in glucose uptake in HPB-ALL and P12-ICHIKAWA T-ALL cells. (g) Effects of GSI treatment in glucose oxidation in HPB-ALL and P12-ICHIKAWA T-ALL cells. Data shown in (d) and (f) are means +/− standard deviation of triplicates. Data shown in (e) and (g) are means +/− standard deviation of duplicates. P values in (a) and (c)-(g) were derived from Student's t-test. […]

[3] = system: P12ICHIKAWA cells; experiment: Glucose uptake and oxidation in P12-ICHIKAWA cells; type: cell-based, human; conditions: CompE 100 nM for 96 hours
Text: as §3, with “only).” for “only). (f) Effects of GSI treatment in glucose uptake in HPB-ALL and P12-ICHIKAWA T-ALL cells. (g) Effects of GSI treatment in glucose oxidation in HPB-ALL and P12-ICHIKAWA T-ALL cells. Data shown in (d) and (f) are means +/− standard deviation of triplicates. Data shown in (e) and (g) are means +/− standard deviation of duplicates. P values in (a) and (c)-(g) were derived from Student's t-test.”
(§4) Glucose uptake and oxidation were analyzed in T-ALL cells treated with GSI (CompE 100 nM for 96 hours) or vehicle only (DMSO) controls. […] For glucose uptake, cells were incubated with 0.1 mM (2 μCi/ml) 2-[3H]-deoxy-glucose, then washed in cold PBS and solubilized in 0.1% SDS and analyzed by scintillation counting. […] Glucose oxidation was measured as the amount of ^14CO2 captured in glass fiber filters previously soaked in 5% KOH. […]

[4] = system: DELTEX1; experiment: Quantitative RT-PCR analysis of DELTEX1 expression in GSI-sensitive and resistant T-ALL cell lines; type: cell-based, human; conditions: Comp E 100 nM, 24 hours
Protocol: FIG. 8. CompE treatment effectively down regulates the expression of DELTEX1 in GSI-sensitive and resistant T-ALL cells. (a and b) Quantitative RT-PCR analysis of DELTEX1 expression in GSI-sensitive and resistant cell lines after 24 hours of treatment with Comp E (100 nM). Relative expression levels were calculated by the ΔΔCt method using GAPDH as a reference control. Data are means +/− standard deviation.
(§5) Total RNA from T-ALL cell lines was extracted with RNAqueous kit (Ambion) following the manufacturer's instructions. cDNA was generated with the ThermoScript RT-PCR system (Invitrogen) and analyzed by quantitative real-time PCR (SYBR Green RT-PCR Core Reagents kit and the 7300 Real-Time PCR System, both from Applied Biosystems). Similar procedures were used to analyze RNA from DN3 cells purified from OP9 cocultures: Trizol method (Invitrogen) for RNA isolation, Omniscript RT kit (Qiagen) for cDNA synthesis and QuantiTect SYBR Green PCR kit (Qiagen) and the Applied Biosystems Sequence Detection System 7000 for PCR. Relative expression levels were based on GAPDH and β-actin as reference controls.

[5] = system: CUTLL1 cells; experiment: Autophagy analysis (electron microscopy, LC3 Western blot) in CUTLL1 cells; type: cell-based, human
Protocol: FIG. 11. […] (a, b) Transmission electron microscopy analysis of an early pass culture of CUTLL1 cells treated with vehicle control (DMSO) or GSI ([…] CompE) for 6 days. White arrow heads indicate phagosomes. Black arrowheads indicate mitochondria. (c) Quantitation of double membrane structures excluding mitochondria in control (DMSO) and GSI (CompE)-treated cells. Horizontal lines indicate the median. P values were derived from the Wilcoxon rank sum test. (d) Western blot analysis of the phagosome-associated LC3 protein in CUTLL1 cells treated with DMSO or CompE for 48 hours.
(§6) Antibodies against activated NOTCH1 (Val1744, Cell Signaling); PTEN (clone 6H2.1, Cascade Biosciences), phospho-AKT (Ser473), AKT (Cell Signaling), LC3, and α-tubulin (TU-02, Santa Cruz Biotechnology) were used according to standard procedures. PTEN immunostaining of formalin-fixed paraffin-embedded tissue sections was performed after heat-induced epitope retrieval in a microwave in citrate buffer (pH6.0). PTEN antibody (Zymed) was used at a 1:50 dilution. Slides were incubated at room temperature overnight before antigen detection using a Ventana automated staining platform (Ventana) and diaminobenzidine (DAB) detection.
Electron microscopy. […] Double membrane structures, excluding mitochondria, were counted in sample preparations of an early-pass culture of CUTLL1 cells treated with DMSO or CompE (500 nM) for 6 days.

[6] = system: DND41 cells; experiment: Cell size (flow cytometry) and cell growth (MTT) assays in DND41 cells; type: cell-based, human; conditions: CompE 100 nM for 4 days
Protocol: as §1, §2

[7] = system: HPB-ALL cells; experiment: Glucose uptake and oxidation in HPB-ALL cells; type: cell-based, human; conditions: CompE 100 nM for 96 hours
Text: as §3, with “only).” for “only). (f) Effects of GSI treatment in glucose uptake in HPB-ALL and P12-ICHIKAWA T-ALL cells. (g) Effects of GSI treatment in glucose oxidation in HPB-ALL and P12-ICHIKAWA T-ALL cells. Data shown in (d) and (f) are means +/− standard deviation of triplicates. Data shown in (e) and (g) are means +/− standard deviation of duplicates. P values in (a) and (c)-(g) were derived from Student's t-test.”
as §4

[8] = system: NOTCH1 processing; experiment: Western blot analysis of activated NOTCH1 (NOTCH1IC) in GSI-sensitive and GSI-resistant T-ALL cell lines; type: cell-based, human; conditions: Comp E 100 nM, 24 hours
Protocol: FIG. 7. CompE treatment effectively blocks NOTCH1 processing in GSI-sensitive and resistant T-ALL cells. Western blot analysis of activated NOTCH1 (NOTCH1IC) levels in GSI-sensitive and resistant cell lines after 24 hours treatment with Comp E (100 nM). α-Tubulin levels are shown as loading control. Lower molecular weight bands correspond to activated NOTCH1 protein in cell lines harboring mutations that result in C-terminal truncations of the PEST domain (NOTCH 1IC-ΔPEST).
as §6

[9] = system: PTEN; experiment: Real-time PCR analysis of PTEN transcript levels upon NOTCH1 inhibition by GSI; type: cell-based, human; conditions: GSI-sensitive/PTEN-positive cells (CUTLL1, HPB-ALL)
Text: FIG. 3. NOTCH1 regulates PTEN expression, AKT signaling and glucose metabolism. (a) Real-time PCR analysis of PTEN transcript levels upon NOTCH1 inhibition by GSI in CUTLL1 and HPB-ALL relative to (DMSO) controls. GAPDH levels were used as reference control. (b) Western blot analysis of PTEN and p-AKT (Ser473) in GSI sensitive T-ALL cell lines treated with CompE. AKT and α-Tubulin are shown as loading controls. (c) Real-time PCR analysis of Hes1 and PTEN expression in mouse DN3 thymocytes cocultured with stromal cells (OP9) or stromal cells expressing the NOTCH1 ligand Delta-like-1 (OP9-DL1). Data are means +/− standard deviation of duplicate (day 1) and triplicate (day 2) experiments. […]
as §5, with “Relative expression levels were based on GAPDH and β-actin as reference controls.” left out

[10] = system: Drosophila ey-Gal4>DI flies; experiment: Drosophila DAPT treatments of flies overexpressing Delta (ey-Gal4>DI); type: in vivo
Text: FIG. 16. Inhibition of NOTCH signaling with GSI can suppress overgrowth caused by overexpression of Delta in vivo. (a) Quantification of NOTCH-like eye growth phenotypes associated with treatment with the presenilin/γ-secretase inhibitor DAPT in flies that overexpressed the NOTCH ligand Delta, during the proliferation phase of eye development. Genotype is ey-Gal4 UAS-DI (hereafter, ey-Gal4>DI). (b) Quantification of other NOTCH-like wing phenotypes (loss of wing margin and small wing size) in the ey-Gal4>DI treated animals. For each of the DAPT concentrations shown, the number of eyes and wings quantified were: n=215 (0 mM of DAPT), n=202 (0.25 mM), n=455 (0.5 mM) and n=318 (1 mM). Representative data from two independent experiments are shown.
Drosophila DAPT treatments. The γ-secretase inhibitor DAPT prevents NOTCH processing, translocation and signaling in cell culture and induces developmental defects in Drosophila similar to those caused by genetic reduction of NOTCH signaling. Stock solutions of the compound in ethanol were added to 2.5 ml of distilled water and dried potato food were prepared. Flies carrying a Delta transgene (UAS-DI) and the eye-specific Gal4 driver, ey-Gal4 (hereafter, ey-Gal4>DI) were kept on standard fly food at 26° C. for 3 days (72 hours) and the progeny were collected and transferred to the vials containing the food mixed with DAPT and allowed to progress through development in the presence of DAPT until closure.

[11] = non-lethal doses (1 mM) in food

SMILES	cell growth [1]	cell size (FSC-H) [1]	AKT Ser473 phosphorylation [2]	glucose oxidation [3]	glucose uptake [3]	NOTCH1 signaling (DELTEX1 expression) [4]	autophagy (transmission electron microscopy, double membrane structures) ([5]; 500 nM CompE for 6 days)	phagosome-associated LC3 protein (Western blot) ([5]; CompE for 48 hours)	cell growth [6]	cell size [6]	glucose oxidation [7]	glucose uptake [7]	NOTCH1 processing (activated NOTCH1, NOTCH1IC levels) [8]	PTEN expression (transcript levels) [9]	eye growth induced by Delta overexpression ([10]; ey-Gal4>DI flies, DAPT in food)	wing phenotype ([10]; ey-Gal4>DI flies, DAPT in food)	Delta-induced eye overgrowth [10, 11]	eye and wing size [10, 11]
C[C@H](NC(=O)Cc1cc(F)cc(F)c1)C(=O)N[C@H]1N=C(c2ccccc2)c2ccccc2N(C)C1=O [CompE, (2S)-2-{[(3,5-Difluorophenyl)acetyl]amino}-N-[(3S)1-methyl-2-oxo-5-phenyl-2,3-dihydro-1H-1,4-benzodiazepin-3-yl]propanamide]	decreased cell growth	Decreased cell size	decreased Ser473 phosphorylation on AKT	not affected	not affected	effectively blocks NOTCH1 signaling and downregulates the expression of genes directly regulated by NOTCH1	induces autophagy	induced the LC3-II isoform	reduced cell growth	cell size defects	significant reductions	significant reductions	effectively block NOTCH1 processing in all cell lines; also recorded: showed NOTCH1 inhibition	significant upregulation of PTEN expression	–	–	–	–
C[C@H](NC(=O)Cc1cc(F)cc(F)c1)C(=O)N[C@H](C(=O)OC(C)(C)C)c1ccccc1 [DAPT, N-[N-(3,5-difluorophenacetyl)-L-alanyl]-Sphenylglycine-t-butylester]	–	–	–	–	–	–	–	–	–	–	–	–	–	–	suppression of eye overgrowth; also recorded: prevented eye growth induced by Delta overexpression	wing defects equivalent to a genetic reduction of NOTCH activity	inhibits Delta-induced overgrowth	eyes and wings smaller than wild type

Source: patent US20110118192A1, “METHODS AND COMPOSITIONS FOR TREATING T-CELL LEUKEMIA” (priority 2007, published 2011)
